The subject of this experiment is SMN2 full length and Δ7 mRNA. In words: Endogenous SMN2 mRNA RT-qPCR splicing assay in cultured cells. In kind it is cell-based, human. The note with it: 24 hr, FIG. 4. On the procedure: Endogenous SMN2 mRNA RT-qPCR Splicing Assay in Cultured Cells
The reverse transcription-quantitative PCR-based (RT-qPCR) assay is used to quantify the levels of the SMN2 full length and Δ7 mRNA in primary cells and cell lines containing the SMN2 gene treated with a test compound.
Protocol. GM03813 SMA patient cells (5,000 cells/well) are seeded in 200 μL, of cell culture medium (DMEM plus 10% FBS) in 96-well flat-bottom plates and the plate is immediately swirled to ensure proper dispersal of cells, forming an even monolayer of cells. Cells are allowed to attach for at least 4-6 hrs. Test compounds are serially diluted 3.16-fold in 100% DMSO to generate a 7-point concentration curve. A solution of test compound (1 μL, 200× in DMSO) is added to each test well and 1 μL, DMSO is added to each control well. The plate is incubated for 24 hrs in a cell culture incubator (37° C., 5% CO2, 100% relative humidity). The cells are then lysed in Cells-To-Ct lysis buffer and the lysate is stored at −80° C.
SMN2-specific spliced products and GAPDH mRNA are identified using the following primers and probes in Table 5. […] Since the SMA patient cells used in Example 3 contain only the SMN2 gene, RT-qPCR can quantify only SMN2 full-length and Δ7 mRNA. […]
The increase of SMN2 FL and decrease in SMN2 Δ7 mRNA relative to those in cells treated with vehicle control are determined from real-time PCR data using a modified ΔΔCt method (as described in Livak and Schmittgen, Methods, 2001, 25:402-8). The amplification efficiency (E) is calculated from the slope of the amplification curve for SMN2 FL, SMN2 Δ7, and GAPDH individually. The abundance of SMN2 FL, SMN2 Δ7 and GAPDH mRNA are then calculated as (1+E)^−Ct, where Ct is the threshold value for each amplicon. […]
(Quantitative PCR measures a nucleic acid by following its amplification.)

[1] abbreviates: GM03813 Type 1 SMA patient fibroblasts, increasing concentrations.

For the compound `COc1ccc(-c2cc(=O)c3cc(N4CCN[C@@H](C)C4)ccc3o2)cc1F` [Cpd 38, 2-(3-fluoro-4-methoxyphenyl)-6-[(3S)-3-methylpiperazin-1-yl]-4H-chromen-4-one], under setting [1], the “SMN2 FL mRNA relative to vehicle” value is recorded as “progressively more SMN2 FL mRNA” and the “SMN2 Δ7 mRNA relative to vehicle” value is listed as “less SMN2 Δ7 mRNA”. Moreover, the SMN2 alternative splicing entry (Type 1 SMA patient fibroblasts, rising concentrations) is reported as “correction of SMN2 alternative splicing”.

The values are drawn from patent US9914722B2, “Compounds for treating spinal muscular atrophy” (PTC Therapeutics Inc., priority 2012, dated 2018).
